Experimental data: paper PMC5651017, “Molecular Insight into the Acryloyl-CoA Hydration by AcuH for Acrylate Detoxification in Dimethylsulfoniopropionate-Catabolizing Bacteria” (Frontiers in Microbiology, 2017)

Experiments:
Type in all cases: biochemical
Conditions in all cases: acryloyl-CoA made in situ by D. shibae PrpE from 0.5 mM acrylate, CoA and ATP; 1 uM RdAcuH, 5 min, 5 mM MgCl2, 100 mM Tris-HCl pH 8.0
RdAcuH [1] = molecular target: T1, RdAcuH (Roseovarius nubinhibens, UniProt A3SKA6, E132A); assay: relative activity, 3-HP-CoA formation by HPLC / LC-MS
T1 construct: gene ISM_05820; no signal peptide; pET-22b (NdeI/XhoI) in E. coli BL21(DE3), Ni-NTA purified; active site between NTD of one subunit and CTD of the neighbouring subunit

RdAcuH [2] = molecular target: T2, RdAcuH (Roseovarius nubinhibens, UniProt A3SKA6, E112A); assay: as above
T2 construct: gene ISM_05820; no signal peptide; pET-22b (NdeI/XhoI) in E. coli BL21(DE3), Ni-NTA purified; active site between NTD of one subunit and CTD of the neighbouring subunit

RdAcuH [3] = molecular target: T3, RdAcuH (Roseovarius nubinhibens, UniProt A3SKA6); assay: HPLC / LC-MS of hydration to 3-HP-CoA
T3 construct: gene ISM_05820; no signal peptide; pET-22b (NdeI/XhoI) in E. coli BL21(DE3), Ni-NTA purified; active site between NTD of one subunit and CTD of the neighbouring subunit
T3 sequence (A3SKA6 1-258): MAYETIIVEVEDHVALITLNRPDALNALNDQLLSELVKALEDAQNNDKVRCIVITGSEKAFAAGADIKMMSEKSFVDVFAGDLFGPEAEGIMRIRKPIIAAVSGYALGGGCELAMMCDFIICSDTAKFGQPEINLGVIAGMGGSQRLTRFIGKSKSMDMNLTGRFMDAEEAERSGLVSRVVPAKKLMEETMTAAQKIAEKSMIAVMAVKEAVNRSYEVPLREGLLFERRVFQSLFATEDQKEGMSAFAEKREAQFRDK

T2 sequence (A3SKA6 entry or part of it E112A): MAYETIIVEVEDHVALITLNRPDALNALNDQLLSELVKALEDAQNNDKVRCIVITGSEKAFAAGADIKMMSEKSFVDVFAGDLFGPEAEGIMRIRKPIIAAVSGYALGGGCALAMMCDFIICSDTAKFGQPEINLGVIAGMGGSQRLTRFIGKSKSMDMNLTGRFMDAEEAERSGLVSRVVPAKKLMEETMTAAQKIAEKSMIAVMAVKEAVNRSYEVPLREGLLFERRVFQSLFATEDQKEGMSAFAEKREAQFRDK
T1 sequence (A3SKA6 entry or part of it E132A): as the sequence (A3SKA6 entry or part of it E112A) above, with A112E, E132A counted along it

C=CC(=O)SCCNC(=O)CCNC(=O)[C@H](O)C(C)(C)COP(=O)(O)OP(=O)(O)OC[C@H]1O[C@@H](n2cnc3c(N)ncnc32)[C@H](O)[C@@H]1OP(=O)(O)O [acryloyl-CoA]
relative activity (RdAcuH [1]): mutations on each of the glutamates to alanine resulted in the inactivation of RdAcuH
relative activity (RdAcuH [2]): mutations on each of the glutamates to alanine resulted in the inactivation of RdAcuH
HPLC / LC-MS of hydration to 3-HP-CoA (RdAcuH [3]): acryloyl-CoA was hydrated by RdAcuH and 3-HP-CoA was produced

CC(C)(COP(=O)(O)OP(=O)(O)OC[C@H]1O[C@@H](n2cnc3c(N)ncnc32)[C@H](O)[C@@H]1OP(=O)(O)O)[C@@H](O)C(=O)NCCC(=O)NCCSC(=O)CCO [3-HP-CoA]
HPLC / LC-MS of hydration to 3-HP-CoA (RdAcuH [3]): RdAcuH has acryloyl-CoA hydratase activity and can catalyze acryloyl-CoA to 3-HP-CoA
